The target in one experiment is Bile salt export pump (Homo sapiens, UniProt O95342). Format: functional.
The target of experiment [1] is Sodium-dependent noradrenaline transporter (Homo sapiens, UniProt P23975).
The target in a further experiment is D(3) dopamine receptor (Homo sapiens, UniProt P35462).
For experiment [2], the target named is 5-hydroxytryptamine receptor 2B (Homo sapiens, UniProt P41595). Format: functional, cell-based.
Experiment [3] addresses Sodium-dependent dopamine transporter (Homo sapiens, UniProt Q01959).
In experiment [4] the target is T1, Muscarinic acetylcholine receptor M2 (Homo sapiens, UniProt P08172).
T1 sequence (P08172 whole entry): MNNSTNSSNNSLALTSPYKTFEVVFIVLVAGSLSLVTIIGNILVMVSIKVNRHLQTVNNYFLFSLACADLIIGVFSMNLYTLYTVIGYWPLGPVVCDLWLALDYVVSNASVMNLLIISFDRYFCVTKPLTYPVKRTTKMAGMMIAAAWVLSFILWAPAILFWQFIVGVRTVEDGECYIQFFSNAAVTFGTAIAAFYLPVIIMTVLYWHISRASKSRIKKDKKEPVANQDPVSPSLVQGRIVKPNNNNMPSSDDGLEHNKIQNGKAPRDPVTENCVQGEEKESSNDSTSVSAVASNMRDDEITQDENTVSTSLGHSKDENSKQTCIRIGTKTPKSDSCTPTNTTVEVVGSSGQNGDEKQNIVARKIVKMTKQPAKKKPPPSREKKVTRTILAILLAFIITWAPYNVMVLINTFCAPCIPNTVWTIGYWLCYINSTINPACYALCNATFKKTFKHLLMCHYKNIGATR

The target in experiment [5] is T2, Thromboxane A2 receptor (Homo sapiens, UniProt P21731).
T2 sequence (P21731 whole entry): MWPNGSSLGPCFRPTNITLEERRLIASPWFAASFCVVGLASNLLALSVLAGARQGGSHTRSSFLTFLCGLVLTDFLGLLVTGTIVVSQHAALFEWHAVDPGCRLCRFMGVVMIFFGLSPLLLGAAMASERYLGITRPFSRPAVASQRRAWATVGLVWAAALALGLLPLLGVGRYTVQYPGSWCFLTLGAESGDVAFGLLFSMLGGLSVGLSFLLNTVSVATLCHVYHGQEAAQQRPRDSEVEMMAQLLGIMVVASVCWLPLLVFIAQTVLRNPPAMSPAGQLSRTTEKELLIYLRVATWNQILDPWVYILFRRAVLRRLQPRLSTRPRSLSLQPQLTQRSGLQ
Format: functional, cell-based.

Experiment [6] concerns the target T3, Alpha-2A adrenergic receptor (Homo sapiens, UniProt P08913).
T3 sequence (P08913 whole entry): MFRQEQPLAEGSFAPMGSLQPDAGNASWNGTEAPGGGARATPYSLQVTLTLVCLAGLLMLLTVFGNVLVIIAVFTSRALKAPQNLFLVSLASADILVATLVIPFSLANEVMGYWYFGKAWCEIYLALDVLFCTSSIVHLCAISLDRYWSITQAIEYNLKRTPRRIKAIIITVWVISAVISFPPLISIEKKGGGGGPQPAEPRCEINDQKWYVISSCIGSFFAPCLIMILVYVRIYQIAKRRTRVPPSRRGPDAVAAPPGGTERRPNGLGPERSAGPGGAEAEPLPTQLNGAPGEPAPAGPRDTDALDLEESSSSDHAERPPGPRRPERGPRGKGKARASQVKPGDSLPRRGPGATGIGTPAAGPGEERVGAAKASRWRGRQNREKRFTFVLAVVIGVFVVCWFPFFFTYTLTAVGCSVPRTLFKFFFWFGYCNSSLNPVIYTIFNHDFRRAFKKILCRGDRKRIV

Experiment [7] deals with Prostaglandin G/H synthase 1 (Homo sapiens, UniProt P23219). Format: functional.
For experiment [8], the target named is T4, 5-hydroxytryptamine receptor 1A (Homo sapiens, UniProt P08908).
T4 sequence (P08908 whole entry): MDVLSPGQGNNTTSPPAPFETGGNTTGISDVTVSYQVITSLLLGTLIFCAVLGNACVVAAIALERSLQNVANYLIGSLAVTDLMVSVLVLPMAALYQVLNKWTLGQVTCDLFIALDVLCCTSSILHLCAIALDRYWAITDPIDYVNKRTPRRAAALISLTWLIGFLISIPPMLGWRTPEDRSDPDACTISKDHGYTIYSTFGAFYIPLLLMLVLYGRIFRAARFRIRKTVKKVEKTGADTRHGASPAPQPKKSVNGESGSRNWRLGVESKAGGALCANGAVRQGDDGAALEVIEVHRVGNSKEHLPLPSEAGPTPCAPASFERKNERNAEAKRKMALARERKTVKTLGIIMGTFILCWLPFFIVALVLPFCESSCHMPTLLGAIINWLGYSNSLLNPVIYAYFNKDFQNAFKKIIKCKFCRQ

For experiment [9], the target named is cGMP-inhibited 3',5'-cyclic phosphodiesterase 3A (Homo sapiens, UniProt Q14432). Format: functional.
Experiment [10] has as its target T5, Amine oxidase [flavin-containing] A (Homo sapiens, UniProt P21397).
T5 sequence (P21397 whole entry): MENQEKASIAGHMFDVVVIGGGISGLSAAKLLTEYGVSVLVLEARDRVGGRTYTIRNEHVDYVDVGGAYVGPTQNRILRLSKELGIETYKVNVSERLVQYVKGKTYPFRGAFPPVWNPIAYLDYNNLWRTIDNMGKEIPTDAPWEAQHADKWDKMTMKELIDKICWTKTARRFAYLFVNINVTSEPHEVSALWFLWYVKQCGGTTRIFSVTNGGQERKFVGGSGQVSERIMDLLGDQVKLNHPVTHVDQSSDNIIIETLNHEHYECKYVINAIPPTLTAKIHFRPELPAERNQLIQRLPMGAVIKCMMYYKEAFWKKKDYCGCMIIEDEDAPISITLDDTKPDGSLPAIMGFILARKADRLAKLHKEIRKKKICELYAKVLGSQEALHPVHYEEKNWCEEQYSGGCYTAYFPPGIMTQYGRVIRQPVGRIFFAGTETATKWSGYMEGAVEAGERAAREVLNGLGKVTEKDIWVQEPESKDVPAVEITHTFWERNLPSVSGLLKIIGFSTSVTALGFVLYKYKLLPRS
Format: functional.

For experiment [11], the target named is 3',5'-cyclic-AMP phosphodiesterase 4A (Homo sapiens, UniProt P27815). Format: functional.
Experiment [12] deals with T2, Thromboxane A2 receptor. In kind it is functional, cell-based. This is another data set of the same source.
Another experiment addresses Prothrombin (Homo sapiens, UniProt P00734). Format: functional.
Another experiment deals with D(1A) dopamine receptor (Homo sapiens, UniProt P21728).
Also: assay procedure not described here.

Chain of Sodium-dependent dopamine transporter (Q01959 whole entry): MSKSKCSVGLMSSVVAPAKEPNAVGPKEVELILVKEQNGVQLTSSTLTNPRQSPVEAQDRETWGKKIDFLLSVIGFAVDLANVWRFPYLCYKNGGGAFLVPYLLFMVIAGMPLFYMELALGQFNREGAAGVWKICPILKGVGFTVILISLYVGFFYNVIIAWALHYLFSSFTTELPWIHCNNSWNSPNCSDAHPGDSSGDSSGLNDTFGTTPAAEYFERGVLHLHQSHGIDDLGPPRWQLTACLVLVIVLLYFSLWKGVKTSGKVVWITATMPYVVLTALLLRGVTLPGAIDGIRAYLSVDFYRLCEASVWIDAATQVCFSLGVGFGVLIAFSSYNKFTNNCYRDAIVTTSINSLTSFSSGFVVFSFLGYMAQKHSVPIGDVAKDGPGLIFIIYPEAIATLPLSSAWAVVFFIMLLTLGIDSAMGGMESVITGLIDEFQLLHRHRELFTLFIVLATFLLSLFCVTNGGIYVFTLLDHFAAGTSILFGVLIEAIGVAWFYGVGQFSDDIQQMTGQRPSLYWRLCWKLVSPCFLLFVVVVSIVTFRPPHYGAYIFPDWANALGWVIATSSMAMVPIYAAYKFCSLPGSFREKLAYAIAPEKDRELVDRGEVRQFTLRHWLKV
Chain of D(3) dopamine receptor (P35462 whole entry): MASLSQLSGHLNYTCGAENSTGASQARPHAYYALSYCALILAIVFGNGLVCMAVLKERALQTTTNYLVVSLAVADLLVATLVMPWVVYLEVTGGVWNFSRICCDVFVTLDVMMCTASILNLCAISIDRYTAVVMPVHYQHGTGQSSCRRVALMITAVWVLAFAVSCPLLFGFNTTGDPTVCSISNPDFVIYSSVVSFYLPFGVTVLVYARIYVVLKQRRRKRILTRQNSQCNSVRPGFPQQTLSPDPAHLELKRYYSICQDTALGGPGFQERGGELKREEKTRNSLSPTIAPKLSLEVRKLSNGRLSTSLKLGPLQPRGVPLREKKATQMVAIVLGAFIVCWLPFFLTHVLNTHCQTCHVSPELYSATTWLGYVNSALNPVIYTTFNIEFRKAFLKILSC
Chain of Sodium-dependent noradrenaline transporter (P23975 whole entry): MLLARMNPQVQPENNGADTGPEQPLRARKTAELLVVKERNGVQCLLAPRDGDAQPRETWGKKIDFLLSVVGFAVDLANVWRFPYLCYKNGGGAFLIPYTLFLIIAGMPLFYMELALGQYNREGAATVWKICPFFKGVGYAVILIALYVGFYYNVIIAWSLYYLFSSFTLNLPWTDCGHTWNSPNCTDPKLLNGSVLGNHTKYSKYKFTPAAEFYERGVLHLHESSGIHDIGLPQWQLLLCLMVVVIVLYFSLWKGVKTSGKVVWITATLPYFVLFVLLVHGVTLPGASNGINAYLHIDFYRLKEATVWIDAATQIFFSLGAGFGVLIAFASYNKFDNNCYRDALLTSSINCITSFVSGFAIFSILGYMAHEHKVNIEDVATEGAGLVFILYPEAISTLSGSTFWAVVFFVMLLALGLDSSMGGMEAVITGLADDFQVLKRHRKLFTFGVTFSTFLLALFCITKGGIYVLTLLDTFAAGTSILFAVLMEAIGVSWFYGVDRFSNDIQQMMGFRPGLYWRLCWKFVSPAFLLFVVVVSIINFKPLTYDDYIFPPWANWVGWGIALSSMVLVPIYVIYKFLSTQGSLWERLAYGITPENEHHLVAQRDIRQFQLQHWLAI
Chain of D(1A) dopamine receptor (P21728 whole entry): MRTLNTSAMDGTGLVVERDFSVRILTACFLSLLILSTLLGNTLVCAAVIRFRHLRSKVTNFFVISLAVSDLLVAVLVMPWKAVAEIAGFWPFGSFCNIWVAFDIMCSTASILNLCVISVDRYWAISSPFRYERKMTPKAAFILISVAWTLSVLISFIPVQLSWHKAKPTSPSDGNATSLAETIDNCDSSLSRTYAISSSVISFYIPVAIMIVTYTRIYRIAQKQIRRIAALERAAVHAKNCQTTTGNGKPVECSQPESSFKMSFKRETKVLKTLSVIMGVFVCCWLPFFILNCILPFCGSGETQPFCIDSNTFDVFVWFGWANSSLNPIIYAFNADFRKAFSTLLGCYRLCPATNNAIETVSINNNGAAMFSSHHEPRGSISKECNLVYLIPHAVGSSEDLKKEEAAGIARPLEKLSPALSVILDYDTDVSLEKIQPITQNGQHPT
Chain of 3',5'-cyclic-AMP phosphodiesterase 4A (P27815 whole entry): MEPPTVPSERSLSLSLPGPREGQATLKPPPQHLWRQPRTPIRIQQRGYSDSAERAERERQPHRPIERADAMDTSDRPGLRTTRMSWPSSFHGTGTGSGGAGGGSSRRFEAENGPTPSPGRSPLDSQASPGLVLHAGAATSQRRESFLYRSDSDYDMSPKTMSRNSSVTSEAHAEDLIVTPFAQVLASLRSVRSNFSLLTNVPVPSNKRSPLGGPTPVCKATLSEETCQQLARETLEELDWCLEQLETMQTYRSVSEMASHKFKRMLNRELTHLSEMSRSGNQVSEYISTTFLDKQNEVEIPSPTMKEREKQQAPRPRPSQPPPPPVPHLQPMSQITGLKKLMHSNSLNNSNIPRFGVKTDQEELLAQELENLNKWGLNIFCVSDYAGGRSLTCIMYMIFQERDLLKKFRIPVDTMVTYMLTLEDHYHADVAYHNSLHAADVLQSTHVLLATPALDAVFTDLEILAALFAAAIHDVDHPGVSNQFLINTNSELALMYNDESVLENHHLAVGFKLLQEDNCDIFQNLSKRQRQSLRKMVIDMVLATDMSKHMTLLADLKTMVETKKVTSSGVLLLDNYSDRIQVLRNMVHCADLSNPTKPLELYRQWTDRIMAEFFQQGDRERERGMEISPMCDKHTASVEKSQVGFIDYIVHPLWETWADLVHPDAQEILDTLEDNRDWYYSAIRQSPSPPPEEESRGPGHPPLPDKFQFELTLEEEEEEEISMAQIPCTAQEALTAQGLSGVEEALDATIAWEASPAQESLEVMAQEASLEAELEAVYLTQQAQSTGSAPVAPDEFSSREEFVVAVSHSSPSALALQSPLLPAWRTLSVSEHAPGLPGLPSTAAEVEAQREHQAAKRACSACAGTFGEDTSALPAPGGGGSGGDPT
Chain of cGMP-inhibited 3',5'-cyclic phosphodiesterase 3A (Q14432 whole entry): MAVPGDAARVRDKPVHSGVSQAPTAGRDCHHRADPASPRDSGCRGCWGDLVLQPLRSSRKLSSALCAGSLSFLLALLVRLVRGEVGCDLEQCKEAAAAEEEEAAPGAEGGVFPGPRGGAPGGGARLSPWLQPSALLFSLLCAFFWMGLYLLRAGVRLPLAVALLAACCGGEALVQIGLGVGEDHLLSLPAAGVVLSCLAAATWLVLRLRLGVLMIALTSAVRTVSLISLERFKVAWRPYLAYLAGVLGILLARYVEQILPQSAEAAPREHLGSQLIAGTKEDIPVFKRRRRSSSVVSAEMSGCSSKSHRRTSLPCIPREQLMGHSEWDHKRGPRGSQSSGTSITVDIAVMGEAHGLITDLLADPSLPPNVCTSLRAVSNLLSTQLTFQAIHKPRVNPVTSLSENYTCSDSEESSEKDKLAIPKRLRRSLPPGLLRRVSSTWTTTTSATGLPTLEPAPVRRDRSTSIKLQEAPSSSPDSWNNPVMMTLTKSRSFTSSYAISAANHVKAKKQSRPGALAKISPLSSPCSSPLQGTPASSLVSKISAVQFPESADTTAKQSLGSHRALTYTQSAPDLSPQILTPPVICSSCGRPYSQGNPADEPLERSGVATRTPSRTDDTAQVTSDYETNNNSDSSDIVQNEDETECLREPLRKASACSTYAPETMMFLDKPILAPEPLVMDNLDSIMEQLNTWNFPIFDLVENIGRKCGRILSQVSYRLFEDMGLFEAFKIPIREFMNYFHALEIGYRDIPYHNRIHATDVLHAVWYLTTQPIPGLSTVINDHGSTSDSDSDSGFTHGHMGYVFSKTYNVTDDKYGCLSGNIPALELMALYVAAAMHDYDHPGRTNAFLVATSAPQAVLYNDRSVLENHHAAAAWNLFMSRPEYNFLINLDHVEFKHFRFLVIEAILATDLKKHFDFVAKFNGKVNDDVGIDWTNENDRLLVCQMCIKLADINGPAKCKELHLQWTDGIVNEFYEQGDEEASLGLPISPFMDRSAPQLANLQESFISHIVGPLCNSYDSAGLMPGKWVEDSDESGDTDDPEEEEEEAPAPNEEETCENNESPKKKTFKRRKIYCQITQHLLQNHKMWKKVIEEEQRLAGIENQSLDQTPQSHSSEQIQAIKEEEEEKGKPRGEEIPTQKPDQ
Chain of 5-hydroxytryptamine receptor 2B (P41595 whole entry): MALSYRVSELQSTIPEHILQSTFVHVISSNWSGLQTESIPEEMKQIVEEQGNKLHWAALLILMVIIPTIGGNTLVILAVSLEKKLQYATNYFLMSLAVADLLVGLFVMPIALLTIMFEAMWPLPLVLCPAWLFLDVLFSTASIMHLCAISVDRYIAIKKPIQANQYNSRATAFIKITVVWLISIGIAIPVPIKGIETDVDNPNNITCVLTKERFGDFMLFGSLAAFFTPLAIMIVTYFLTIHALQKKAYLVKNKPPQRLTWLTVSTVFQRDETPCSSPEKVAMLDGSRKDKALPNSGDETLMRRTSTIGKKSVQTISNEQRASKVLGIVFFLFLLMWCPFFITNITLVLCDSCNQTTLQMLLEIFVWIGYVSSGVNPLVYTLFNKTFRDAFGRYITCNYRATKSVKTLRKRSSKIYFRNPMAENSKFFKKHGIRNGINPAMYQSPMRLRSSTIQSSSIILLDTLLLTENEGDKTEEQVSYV

For the compound `CC(=N)N1CC[C@H](SC2=C(C(=O)O)N3C(=O)[C@H]([C@@H](C)O)[C@H]3C2)C1`, at Bile salt export pump, the AC50 is greater than 300 µM.

For the compound `CC(/C=C1\SC(=S)N(CC(=O)O)C1=O)=C\c1ccccc1`, the AC50 at Bile salt export pump worked out at 1.6 µM.

Take `CC1(C)S[C@@H]2[C@H](NC(=O)[C@H](N)c3ccc(O)cc3)C(=O)N2[C@H]1C(=O)O` [AMOXICILLIN]: the AC50 on Bile salt export pump is greater than 300 µM.

With `O=C1CN2Cc3c(ccc(Cl)c3Cl)N=C2N1` [ANAGRELIDE], the AC50 on Bile salt export pump was greater than 300 µM.

`CNCC[C@@H](Oc1ccccc1C)c1ccccc1` [ATOMOXETINE]: the AC50 on Bile salt export pump is greater than 300 µM.

`CCc1oc2ccccc2c1C(=O)c1cc(Br)c(O)c(Br)c1` [BENZBROMARONE]: the AC50 at Bile salt export pump was 3 µM.

In the case of `C=C(C)[C@@H]1CCC(C)=C[C@H]1c1c(O)cc(CCCCC)cc1O` [CANNABIDIOL], the AC50 at Bile salt export pump amounted to 53 µM.

For `CO/N=C(\C(=O)N[C@@H]1C(=O)N2C(C(=O)O)=C(COC(N)=O)CS[C@H]12)c1ccco1` [CEFUROXIME], at Bile salt export pump, the AC50 was greater than 300 µM.

Consider `[H]/N=C(\N/C(=N/[H])NCCCCCCNC(=N)NC(=N)Nc1ccc(Cl)cc1)Nc1ccc(Cl)cc1` [CHLORHEXIDINE], for which the AC50 on Bile salt export pump was found to be 170 µM.

Consider `Clc1cccc(Cl)c1N=C1NCCN1` [CLONIDINE], for which, on Bile salt export pump, the AC50 was greater than 300 µM.

As for `COC(=O)[C@H](c1ccccc1Cl)N1CCc2sccc2C1` [CLOPIDOGREL], on Bile salt export pump, the AC50 worked out at 40 µM.

For `CN1C[C@H](C(=O)N[C@]2(C)O[C@@]3(O)[C@@H]4CCCN4C(=O)[C@H](Cc4ccccc4)N3C2=O)C[C@@H]2c3cccc4[nH]cc(c34)C[C@H]21` [DIHYDROERGOTAMINE], on Bile salt export pump, the AC50 turned out to be 28 µM.

Turning to `CNCC[C@H](Oc1cccc2ccccc12)c1cccs1` [DULOXETINE], the AC50 on Bile salt export pump is greater than 300 µM.

Regarding `CC1(C)O[C@@H]2C[C@H]3[C@@H]4C[C@H](F)C5=CC(=O)C=C[C@]5(C)[C@H]4[C@@H](O)C[C@]3(C)[C@]2(C(=O)CO)O1` [FLUNISOLIDE], the AC50 on Bile salt export pump turned out to be 77 µM.

Consider `Nc1nc(O)c2ncn(COC(CO)CO)c2n1` [GANCICLOVIR], for which the AC50 at Bile salt export pump is greater than 300 µM.

Consider `C[C@H]1Oc2cc(cnc2N)-c2c(nn(C)c2C#N)CN(C)C(=O)c2ccc(F)cc21` [LORLATINIB], for which the AC50 on Bile salt export pump is 120 µM.

Regarding `Cc1cnc(NC(=O)C2=C(O)c3ccccc3S(=O)(=O)N2C)s1` [MELOXICAM], the AC50 at Bile salt export pump turned out to be 160 µM.

Turning to `CC[C@@H](CO)NC(=O)[C@@H]1C=C2c3cccc4[nH]cc(c34)C[C@H]2N(C)C1` [METHYLERGONOVINE], the AC50 on Bile salt export pump is greater than 300 µM.

Regarding `CC(C)(C)C(=O)NCCCC(=O)O` [PIVAGABINE], the AC50 (in experiment [1]; at D(3) dopamine receptor; in [2]; in [3]; in experiment [4]; at Thromboxane A2 receptor [5]) was greater than 30 µM throughout. Moreover, the AC50 in [6], in [7], in [8], in experiment [9], in experiment [10] and in experiment [11] was greater than 30 µM in each case. The AC50 on Thromboxane A2 receptor [12], at Prothrombin and on D(1A) dopamine receptor was greater than 30 µM throughout.

On to `CN(C)C(=O)c1nc(CNC(=O)CN)n(-c2ccc(Cl)cc2C(=O)c2ccccc2Cl)n1` [RILMAZAFONE], for which the AC50 (in [1]; at D(3) dopamine receptor; in experiment [2]; in experiment [3]; in [4]; at Thromboxane A2 receptor [5]) was greater than 30 µM each time. In addition, the AC50 in experiment [6], in [7], in experiment [8], in experiment [9], in [10] and in experiment [11] was greater than 30 µM throughout. The AC50 at Thromboxane A2 receptor [12], at Prothrombin and on D(1A) dopamine receptor was greater than 30 µM each time.

With `CCCCNc1ccc(C(=O)OCCN(C)C)cc1` [TETRACAINE], the AC50 was greater than 30 µM in [1]; 18.5 µM at D(3) dopamine receptor; greater than 30 µM in experiment [2]; 21.9 µM in [3]; greater than 30 µM in [4]; greater than 30 µM on Thromboxane A2 receptor [5]. For the same compound, the AC50 in [6] is greater than 30 µM; in experiment [7], greater than 30 µM; in [8] it was greater than 30 µM; in experiment [9], greater than 30 µM; in [10], 1.41 µM; in experiment [11] it was greater than 30 µM. For the same compound, the AC50 at Thromboxane A2 receptor [12], on Prothrombin and on D(1A) dopamine receptor was greater than 30 µM in each case.

For `CN1CCN(CCCN2c3ccccc3Sc3ccc(S(=O)(=O)N(C)C)cc32)CC1` [THIOPROPERAZINE], the AC50 was 16.8 µM in [1]; 0.003 µM at D(3) dopamine receptor; greater than 30 µM in [2]; 13.3 µM in experiment [3]; 2.66 µM in experiment [4]; greater than 30 µM at Thromboxane A2 receptor [5]. Also, the AC50 in [6] is 1.42 µM; in [7] it was 23.6 µM; in [8] it was 6.09 µM; in [9], greater than 30 µM; in experiment [10] it was greater than 30 µM; in [11], greater than 30 µM. The AC50 at Thromboxane A2 receptor [12] was 9.38 µM; at Prothrombin, greater than 30 µM; at D(1A) dopamine receptor, 0.13 µM.

For `CCCCCCCCCCCCCCCC(=O)OC/C=C(C)/C=C/C=C(C)/C=C/C1=C(C)CCCC1(C)C` [VITAMIN A PALMITATE], the AC50 (in experiment [1]; at D(3) dopamine receptor; in experiment [2]; in experiment [3]; in experiment [4]; at Thromboxane A2 receptor [5]) was greater than 30 µM throughout. Further, the AC50 in experiment [6], in experiment [7], in [8], in [9], in experiment [10] and in experiment [11] was greater than 30 µM in each case. The AC50 on Thromboxane A2 receptor [12], at Prothrombin and at D(1A) dopamine receptor was greater than 30 µM in each case.

The AC50 is the midpoint of the concentration-response curve, whichever way the signal moves.

For the origin of these results see ChEMBL document CHEMBL5291721, “A preclinical secondary pharmacology resource illuminates target-adverse drug reaction associations of marketed drugs” (Nat Commun, 2023).
